Laboratory results taken from patent publication US6359009B1, “Substituted anilide insecticidal agents” (BASF Aktiengesellschaft, priority 1998, dated 2002).

Key:
[1] = tested on: Diabrotica undecimrunctata howardi, 3rd instar southern corn rootworm; experiment: Evaluation against 3rd instar southern corn rootworm, treated talc/soil jar test, mortality after 5 days; type: in vivo, Diabrotica undecimpunctata howardi; settings: mortality rating 0-9 after 5 days in soil
Procedure: (§1) Test solutions are prepared by dissolving the test compound in a 35% acetone in water mixture to give a concentration of 10,000 ppm. Subsequent dilutions are made with water as needed.
Diabrotica undecimrunctata howardi, 3rd instar southern corn rootworm
(§2) One cc of fine talc is placed in a 30 mL wide-mouth screw-top glass jar. One mL of the appropriate acetone test solution is pipetted onto the talc so as to provide 1.25 mg, 0.25 mg or 0.025 mg of active ingredient per jar. The jars are set under a gentle air flow until the acetone is evaporated. The dried talc is loosened, 1 cc of millet seed is added to serve as food for the insects and 25 mL of moist soil is added to each jar. The jar is capped and the contents thoroughly mixed mechanically. Following this, ten 3rd instar rootworms are added to each jar and the jars are loosely capped to allow air exchange for the larvae. The treatments are held for 5 days when mortality counts are made. Missing larvae are presumed dead, since they decompose rapidly and can not be found.

[2] = tested on: Diabrotica virgifera virgifera Leconte, 3rd instar western corn rootworm; experiment: Evaluation against 3rd instar western corn rootworm, treated talc/soil jar test, mortality after 5 days; type: in vivo; settings: mortality rating 0-9 after 5 days in soil
Procedure: as §1
Diabrotica virgifera virgifera Leconte, 3rd instar western corn rootworm
as §2

Compound	Southern Corn Rootworm (50 ppm) rating [1]	Western Corn Rootworm (1 ppm) rating ([2]; 1 ppm)	Western Corn Rootworm (10 ppm) rating ([2]; 10 ppm)	Western Corn Rootworm (50 ppm) rating ([2]; 50 ppm)	Southern Corn Rootworm (1 ppm) rating [1]	Southern Corn Rootworm (10 ppm) rating [1]
CC(C)/C(=N\O)C(C)(C)C(=O)Nc1ccc(C(F)(F)F)cc1 [Compound 10, α,α,α-Trifluoro-2,2,4-trimethyl-3-oxo-p-valerotoluidide, 3-oxime]	7.0	–	–	–	–	–
CC(C)(C(=O)Nc1ccc(C(F)(F)F)cc1)C(=O)C(C)(C)c1ccccc1 [Compound 11, α,α,α-Trifluoro-2,2,4-trimethyl-3-oxo-4-phenyl-p-valerotoluidide]	6.0	–	–	–	–	–
CC(C)[S+]([O-])C(C)(C)C(=O)Nc1ccc(C(F)(F)F)cc1 (stereo not drawn) [Compound 12, α,α,α-Trifluoro-2-(isopropylsulfinyl)-2-methyl-p-propionotoluidide]	9.0	0.0	0.0	9.0	8.0	9.0
CC(C)S(=O)(=O)C(C)(C)C(=O)Nc1ccc(C(F)(F)F)cc1 [Compound 13, α,α,α-Trifluoro-2-(isopropylsulfonyl)-2-methyl-p-propionotoluidide]	9.0	–	–	–	3.0	9.0
CC(=O)OC(C(C)C)C(C)(C)C(=O)Nc1ccc(Cl)cc1 (centres unmarked) [Compound 14, 4′-chloro-3-hydroxy-2,2,4-trimethylvaleranilide, acetate (ester)]	9.0	–	–	–	9.0	9.0
CC(C)C(=O)C(C)(C)C(=O)Nc1ccc(Cl)cc1 [Compound 37, 4′-Chloro-2,2,4-trimethyl-3-oxovaleranilide]	9.0	–	–	–	0.0	9.0
